{"source": "patent US20120039926A1", "about": "“Compositions and Methods for Modulating Immunogenic Responses by Activating Dendritic Cells” (priority 2009, published 2012)", "key": {"[1]": {"test_system": "BM cells", "assay": "Protein array of spent medium from treated BM cells", "assay_type": "cell-based, mouse", "experimental": "Bone marrow (BM) cells were prepared. Briefly, the femurs and tibias were obtained from five C57BL/6 female mice, and the ends were removed to expose the hollow bone packed with marrow. BM cells were flushed from the bones with cold Hanks Balanced Salt Solution (HBSS) using a sterile disposable 22 g needle and pooled. Red blood cells (RBCs) were lysed using Tris-buffered ammonium chloride and resultant cells were washed 3 times in HBSS. BM cells were suspended in tissue culture medium (TCM) (RPMI 1640 with glutaminie plus […] PenStrep, 50 uM 2-mercaptoethanol, and 5% fetal calf serum) at approximately 5×10^6 cells/ml and incubated for 1 hour at 37° C. in a 5% CO2 atmosphere in plastic tissue culture flasks to remove adherent, mature macrophages. Decanted non-adherent cells were resuspended in TCM and 1.5×10^6 BM cells in 1 ml were placed into each well of a 24-well tissue culture plate (Falcon) and either left untreated or treated with 14.5 micromoles of J, gD, JgD or JH vaccines. After incubation for 48 hrs at 37° C., cells were viewed and photographed for changes in morphology, tissue culture supernatants were removed and the cells were prepared for flow cytometric analysis."}, "[2]": {"test_system": "A/J or C57BL/6 female mice", "assay_type": "in vivo, mouse"}, "[3]": {"test_system": "C57BL/6 bone marrow (BM) cells", "assay_type": "cell-based, mouse", "settings": "second day after treatment, 14.5 micromoles"}, "[4]": {"test_system": "A/J or C57BL/6 female mice", "assay_type": "in vivo, mouse", "settings": "sera of days 3, 10 and 24"}, "[5]": {"test_system": "CD3- BM cells", "assay": "Surface CD8 and intracellular IL-12p70 in CD3-depleted bone marrow cells", "assay_type": "cell-based, mouse", "settings": "BM cells after treatment", "excerpt": "CD3+ cells were removed from BM cells using the fluorescence activated cell sorter and then untreated or treated with JgD or JH. Flow cytometric analysis of the sorted population confirmed the removal of CD3 positive cells. The CD3− BM cells were labeled with FITC-anti-CD8 (Beckman Coulter (clone 53-6.7)), fixed with paraformaldehyde, permeabilized with saponin (Intraprep, Immunotech), labeled with PE-anti-IL-12p70 (Beckman Coulter) and then post fixed with paraformaldehyde prior to immunofluorescence analysis."}, "[6]": {"test_system": "human monocytes", "assay_type": "cell-based", "settings": "DC precursors (GMCSF and IL4), spent medium"}}}
{"substance": "J-ICBL: immune cell binding ligand, amino acid 38-50 from the β-2-microglobulin (DLLKNGERIEKVE), unconjugated", "values": [{"measurement": "cytokine response in spent medium of treated BM cells", "setting": "[1]", "value": "failed to detect a cytokine response"}, {"measurement": "IL-10 serum level relative to adjuvant control", "setting": "[2]", "value": "significantly decreased to only a half or to a third"}, {"measurement": "IL-12p40 serum level", "setting": "[2]; versus adjuvant control", "value": "small but not significant increase"}, {"measurement": "IL-12p70 serum level", "setting": "[2]; versus adjuvant control", "value": "small but not significant increase"}, {"measurement": "CD11c expression on monocyte population of BM cells", "setting": "[3]", "value": "no discernable change"}, {"measurement": "CD86 expression on monocyte population of BM cells", "setting": "[3]", "value": "no discernable change"}, {"measurement": "IL-12p70 in sera (direct ELISA), in words", "setting": "[4]", "value": "only trace or undetectable amounts"}, {"measurement": "IL-12p70 expressing cells", "setting": "[5]", "value": "no significant increase"}, {"measurement": "production of cytokines (protein array)", "setting": "[6]", "value": "no significant production of cytokines"}]}
